Measurements published in publication PMC11167047 (Cell Death Discovery, 2024).

How the values were obtained:
Assay in all cases: kinome screen (33PanQinase)
Type in all cases: biochemical
CLK2 = target: T1, CLK2 (Homo sapiens, UniProt P49760)
T1 construct: purchased Reaction Biology Europe GmbH (formerly ProQinase)
Method: (§1) The Kinome Screening was performed by Reaction Biology Europe GmbH (http://reactionbiology.com; Freiburg i. Br., Germany).

GSK3β = target: T2, GSK3β (Homo sapiens, UniProt P49841)
T2 construct: purchased Reaction Biology Europe GmbH (formerly ProQinase)
Method: as §1

MYLK2 = target: T3, MYLK2 (Homo sapiens, UniProt Q9H1R3)
T3 construct: purchased Reaction Biology Europe GmbH (formerly ProQinase)
Method: as §1

SGK2 = target: T4, SGK2 (Homo sapiens, UniProt Q9HBY8)
T4 construct: purchased Reaction Biology Europe GmbH (formerly ProQinase)
T4 sequence (Q9HBY8 1-367): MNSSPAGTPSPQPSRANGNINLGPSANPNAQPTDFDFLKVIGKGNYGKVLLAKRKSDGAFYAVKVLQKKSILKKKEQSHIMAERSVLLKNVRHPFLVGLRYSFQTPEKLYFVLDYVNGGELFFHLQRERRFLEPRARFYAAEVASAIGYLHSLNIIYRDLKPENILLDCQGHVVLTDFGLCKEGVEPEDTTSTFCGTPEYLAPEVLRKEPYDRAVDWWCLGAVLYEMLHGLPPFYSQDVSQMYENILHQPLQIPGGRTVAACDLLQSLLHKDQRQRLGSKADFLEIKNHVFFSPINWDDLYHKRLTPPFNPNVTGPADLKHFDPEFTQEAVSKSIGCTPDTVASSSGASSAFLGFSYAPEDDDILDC
Method: as §1

IKKβ = target: T5, IKKβ (Homo sapiens, UniProt O14920)
T5 construct: purchased Reaction Biology Europe GmbH (formerly ProQinase)
T5 sequence (O14920 1-756): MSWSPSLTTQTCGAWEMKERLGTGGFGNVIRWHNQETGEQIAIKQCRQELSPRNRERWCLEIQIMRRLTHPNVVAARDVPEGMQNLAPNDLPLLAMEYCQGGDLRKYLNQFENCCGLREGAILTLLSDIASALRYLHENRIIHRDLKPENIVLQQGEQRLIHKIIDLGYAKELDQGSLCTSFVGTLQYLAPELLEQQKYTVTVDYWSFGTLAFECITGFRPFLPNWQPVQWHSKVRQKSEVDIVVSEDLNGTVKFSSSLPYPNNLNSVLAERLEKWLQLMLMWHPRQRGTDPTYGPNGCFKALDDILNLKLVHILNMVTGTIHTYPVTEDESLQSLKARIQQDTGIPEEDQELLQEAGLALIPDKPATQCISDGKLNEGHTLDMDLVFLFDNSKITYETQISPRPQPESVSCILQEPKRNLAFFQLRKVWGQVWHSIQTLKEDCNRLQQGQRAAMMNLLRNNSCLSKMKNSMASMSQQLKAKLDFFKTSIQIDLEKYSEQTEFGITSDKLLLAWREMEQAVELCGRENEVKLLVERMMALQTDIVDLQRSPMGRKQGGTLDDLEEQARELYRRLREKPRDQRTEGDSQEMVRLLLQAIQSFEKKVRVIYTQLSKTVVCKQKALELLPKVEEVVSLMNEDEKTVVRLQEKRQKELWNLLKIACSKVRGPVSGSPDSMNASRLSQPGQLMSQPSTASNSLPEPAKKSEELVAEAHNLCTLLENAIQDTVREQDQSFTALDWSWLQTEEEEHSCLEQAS
Method: as §1

TRKA = target: T6, TRKA (Homo sapiens, UniProt P04629)
T6 construct: purchased Reaction Biology Europe GmbH (formerly ProQinase)
Method: as §1

BMPR1B = target: T7, BMPR1B (Homo sapiens, UniProt O00238)
T7 construct: purchased Reaction Biology Europe GmbH (formerly ProQinase)
Method: as §1

MLK4 = target: T8, MLK4 (Homo sapiens, UniProt Q5TCX8)
T8 construct: purchased Reaction Biology Europe GmbH (formerly ProQinase)
Method: as §1

CDK16/CycY = target: T9, CDK16/CycY (Homo sapiens, UniProt Q00536)
T9 construct: purchased Reaction Biology Europe GmbH (formerly ProQinase)
Method: as §1

EPHA6 = target: T10, EPHA6 (Homo sapiens, UniProt Q9UF33)
T10 construct: purchased Reaction Biology Europe GmbH (formerly ProQinase)
T10 sequence (Q9UF33 23-1036): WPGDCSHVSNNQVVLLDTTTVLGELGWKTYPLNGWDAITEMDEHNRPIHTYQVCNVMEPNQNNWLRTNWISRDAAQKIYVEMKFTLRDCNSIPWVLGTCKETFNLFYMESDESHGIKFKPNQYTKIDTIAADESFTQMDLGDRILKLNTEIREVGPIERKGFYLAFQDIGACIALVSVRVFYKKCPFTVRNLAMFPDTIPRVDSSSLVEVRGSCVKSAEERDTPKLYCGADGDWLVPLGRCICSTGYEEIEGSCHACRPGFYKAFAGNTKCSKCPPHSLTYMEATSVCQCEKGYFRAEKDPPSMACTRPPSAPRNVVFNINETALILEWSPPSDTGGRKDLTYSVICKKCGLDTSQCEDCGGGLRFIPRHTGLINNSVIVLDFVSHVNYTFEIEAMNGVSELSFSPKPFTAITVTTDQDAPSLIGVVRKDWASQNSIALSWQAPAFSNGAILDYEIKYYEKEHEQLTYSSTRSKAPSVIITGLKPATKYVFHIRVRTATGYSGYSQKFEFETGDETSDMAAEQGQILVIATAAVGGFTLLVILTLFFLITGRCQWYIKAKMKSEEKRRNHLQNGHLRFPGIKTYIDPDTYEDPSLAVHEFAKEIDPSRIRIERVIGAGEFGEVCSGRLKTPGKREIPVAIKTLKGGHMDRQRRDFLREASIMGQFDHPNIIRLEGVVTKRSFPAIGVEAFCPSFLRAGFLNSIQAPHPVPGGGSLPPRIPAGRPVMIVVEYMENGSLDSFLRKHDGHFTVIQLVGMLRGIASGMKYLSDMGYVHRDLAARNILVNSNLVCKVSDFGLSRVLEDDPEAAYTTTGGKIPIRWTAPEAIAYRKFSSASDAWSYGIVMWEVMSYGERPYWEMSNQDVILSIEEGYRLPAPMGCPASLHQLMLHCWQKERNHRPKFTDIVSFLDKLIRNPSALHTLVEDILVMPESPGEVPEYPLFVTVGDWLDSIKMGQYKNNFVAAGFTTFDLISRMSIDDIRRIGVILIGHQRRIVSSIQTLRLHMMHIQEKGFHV
Method: as §1

T2 sequence (P49841 whole entry): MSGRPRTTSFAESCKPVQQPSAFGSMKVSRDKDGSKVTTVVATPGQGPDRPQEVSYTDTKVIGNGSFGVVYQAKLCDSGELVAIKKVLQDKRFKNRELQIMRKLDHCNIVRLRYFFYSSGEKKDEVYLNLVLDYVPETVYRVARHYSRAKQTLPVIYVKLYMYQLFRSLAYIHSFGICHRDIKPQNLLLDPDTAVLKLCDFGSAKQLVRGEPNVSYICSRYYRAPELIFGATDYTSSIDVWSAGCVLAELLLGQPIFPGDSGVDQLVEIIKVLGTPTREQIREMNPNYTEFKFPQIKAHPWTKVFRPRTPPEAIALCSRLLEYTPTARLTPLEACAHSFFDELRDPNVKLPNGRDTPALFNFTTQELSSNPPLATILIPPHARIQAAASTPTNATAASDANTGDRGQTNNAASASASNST
T9 sequence (Q00536 whole entry): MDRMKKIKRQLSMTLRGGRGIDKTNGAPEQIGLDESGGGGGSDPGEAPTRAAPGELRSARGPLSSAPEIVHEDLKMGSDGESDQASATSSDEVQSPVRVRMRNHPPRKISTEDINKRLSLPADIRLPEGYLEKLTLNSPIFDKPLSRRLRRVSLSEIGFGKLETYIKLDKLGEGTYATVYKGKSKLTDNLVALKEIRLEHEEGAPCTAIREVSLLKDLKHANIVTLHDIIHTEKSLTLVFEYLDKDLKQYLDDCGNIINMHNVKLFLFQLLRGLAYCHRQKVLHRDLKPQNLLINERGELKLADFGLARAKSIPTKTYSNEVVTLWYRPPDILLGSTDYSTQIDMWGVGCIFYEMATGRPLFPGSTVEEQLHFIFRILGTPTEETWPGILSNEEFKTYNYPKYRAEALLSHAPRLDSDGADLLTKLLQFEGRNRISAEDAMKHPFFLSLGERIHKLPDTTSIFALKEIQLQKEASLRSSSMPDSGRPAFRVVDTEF
T9 sequence (Q8ND76 whole entry partner): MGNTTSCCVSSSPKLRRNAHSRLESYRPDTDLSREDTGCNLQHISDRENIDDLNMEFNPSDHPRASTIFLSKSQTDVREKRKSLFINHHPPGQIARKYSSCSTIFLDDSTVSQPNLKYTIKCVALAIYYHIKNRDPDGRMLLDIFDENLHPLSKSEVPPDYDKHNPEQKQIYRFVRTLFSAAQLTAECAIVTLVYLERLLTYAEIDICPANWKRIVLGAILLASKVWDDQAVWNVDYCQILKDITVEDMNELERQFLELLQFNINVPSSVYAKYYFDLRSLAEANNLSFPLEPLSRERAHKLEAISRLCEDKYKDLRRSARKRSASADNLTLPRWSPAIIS
T1 sequence (P49760 whole entry): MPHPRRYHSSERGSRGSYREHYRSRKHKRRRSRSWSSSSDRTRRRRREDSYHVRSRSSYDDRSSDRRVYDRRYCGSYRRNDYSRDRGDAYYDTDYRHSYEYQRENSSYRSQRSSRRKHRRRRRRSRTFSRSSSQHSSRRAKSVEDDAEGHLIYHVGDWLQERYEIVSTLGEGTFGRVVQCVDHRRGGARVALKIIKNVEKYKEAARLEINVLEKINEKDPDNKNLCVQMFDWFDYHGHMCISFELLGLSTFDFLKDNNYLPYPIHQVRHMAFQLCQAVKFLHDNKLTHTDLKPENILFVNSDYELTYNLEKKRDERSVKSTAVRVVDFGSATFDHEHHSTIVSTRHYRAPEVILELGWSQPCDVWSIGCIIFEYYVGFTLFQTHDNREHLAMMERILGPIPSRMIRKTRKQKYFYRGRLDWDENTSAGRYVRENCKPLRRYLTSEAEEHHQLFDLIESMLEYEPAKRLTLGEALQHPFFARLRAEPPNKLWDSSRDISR
T7 sequence (O00238 14-502): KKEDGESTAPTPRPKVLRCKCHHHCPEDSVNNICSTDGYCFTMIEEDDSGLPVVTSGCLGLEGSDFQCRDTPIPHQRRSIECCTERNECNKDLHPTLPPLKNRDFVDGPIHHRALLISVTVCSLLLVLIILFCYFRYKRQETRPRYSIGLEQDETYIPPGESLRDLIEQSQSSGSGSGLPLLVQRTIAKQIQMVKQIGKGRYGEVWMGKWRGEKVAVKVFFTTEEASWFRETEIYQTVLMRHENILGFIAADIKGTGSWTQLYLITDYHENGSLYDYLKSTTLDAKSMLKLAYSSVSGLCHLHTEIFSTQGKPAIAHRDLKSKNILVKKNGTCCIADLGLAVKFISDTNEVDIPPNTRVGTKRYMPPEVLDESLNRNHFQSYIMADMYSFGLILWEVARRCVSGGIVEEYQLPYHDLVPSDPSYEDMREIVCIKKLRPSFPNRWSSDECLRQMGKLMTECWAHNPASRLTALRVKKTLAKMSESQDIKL
T3 sequence (Q9H1R3 whole entry): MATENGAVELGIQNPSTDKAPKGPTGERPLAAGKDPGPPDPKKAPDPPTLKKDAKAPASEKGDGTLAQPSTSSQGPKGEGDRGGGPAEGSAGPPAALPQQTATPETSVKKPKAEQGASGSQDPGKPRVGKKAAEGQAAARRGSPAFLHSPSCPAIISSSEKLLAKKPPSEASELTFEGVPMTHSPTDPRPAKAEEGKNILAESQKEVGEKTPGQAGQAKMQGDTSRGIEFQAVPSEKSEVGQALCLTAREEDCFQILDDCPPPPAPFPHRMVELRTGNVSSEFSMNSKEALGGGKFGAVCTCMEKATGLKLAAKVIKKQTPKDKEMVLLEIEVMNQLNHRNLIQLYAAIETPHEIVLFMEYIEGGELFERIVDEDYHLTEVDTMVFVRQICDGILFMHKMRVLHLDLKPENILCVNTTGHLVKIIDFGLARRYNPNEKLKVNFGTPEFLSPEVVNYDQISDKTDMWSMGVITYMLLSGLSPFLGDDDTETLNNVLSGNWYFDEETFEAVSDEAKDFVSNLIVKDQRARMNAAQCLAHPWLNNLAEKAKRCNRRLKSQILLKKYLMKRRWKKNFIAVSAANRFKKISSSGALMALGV
T8 sequence (Q5TCX8 whole entry): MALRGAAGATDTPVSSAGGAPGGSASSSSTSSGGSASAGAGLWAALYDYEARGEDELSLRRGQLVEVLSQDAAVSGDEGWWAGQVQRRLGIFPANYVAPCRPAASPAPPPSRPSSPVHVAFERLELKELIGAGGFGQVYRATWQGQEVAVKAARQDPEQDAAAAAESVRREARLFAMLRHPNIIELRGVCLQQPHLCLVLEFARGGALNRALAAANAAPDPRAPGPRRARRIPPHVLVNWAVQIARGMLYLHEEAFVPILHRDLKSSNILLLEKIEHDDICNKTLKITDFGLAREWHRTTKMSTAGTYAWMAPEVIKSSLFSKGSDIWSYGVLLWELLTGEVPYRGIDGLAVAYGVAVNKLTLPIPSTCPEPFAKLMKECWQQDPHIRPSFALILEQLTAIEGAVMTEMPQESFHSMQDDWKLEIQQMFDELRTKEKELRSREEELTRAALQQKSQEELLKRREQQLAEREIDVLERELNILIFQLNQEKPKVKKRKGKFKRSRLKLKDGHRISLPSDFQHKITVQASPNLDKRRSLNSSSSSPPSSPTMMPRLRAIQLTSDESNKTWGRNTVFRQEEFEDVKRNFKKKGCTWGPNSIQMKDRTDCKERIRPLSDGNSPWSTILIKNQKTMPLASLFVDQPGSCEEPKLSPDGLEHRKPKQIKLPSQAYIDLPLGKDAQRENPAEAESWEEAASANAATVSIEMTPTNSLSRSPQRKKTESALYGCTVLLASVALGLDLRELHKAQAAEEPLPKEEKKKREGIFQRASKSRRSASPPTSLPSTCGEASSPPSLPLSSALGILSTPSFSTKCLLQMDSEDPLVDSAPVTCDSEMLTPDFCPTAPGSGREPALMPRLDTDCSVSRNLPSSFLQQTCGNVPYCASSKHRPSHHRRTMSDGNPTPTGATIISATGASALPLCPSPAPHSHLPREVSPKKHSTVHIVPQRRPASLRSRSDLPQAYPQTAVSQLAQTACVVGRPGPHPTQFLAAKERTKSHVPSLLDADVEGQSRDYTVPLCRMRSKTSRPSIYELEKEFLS
T6 sequence (P04629 33-796): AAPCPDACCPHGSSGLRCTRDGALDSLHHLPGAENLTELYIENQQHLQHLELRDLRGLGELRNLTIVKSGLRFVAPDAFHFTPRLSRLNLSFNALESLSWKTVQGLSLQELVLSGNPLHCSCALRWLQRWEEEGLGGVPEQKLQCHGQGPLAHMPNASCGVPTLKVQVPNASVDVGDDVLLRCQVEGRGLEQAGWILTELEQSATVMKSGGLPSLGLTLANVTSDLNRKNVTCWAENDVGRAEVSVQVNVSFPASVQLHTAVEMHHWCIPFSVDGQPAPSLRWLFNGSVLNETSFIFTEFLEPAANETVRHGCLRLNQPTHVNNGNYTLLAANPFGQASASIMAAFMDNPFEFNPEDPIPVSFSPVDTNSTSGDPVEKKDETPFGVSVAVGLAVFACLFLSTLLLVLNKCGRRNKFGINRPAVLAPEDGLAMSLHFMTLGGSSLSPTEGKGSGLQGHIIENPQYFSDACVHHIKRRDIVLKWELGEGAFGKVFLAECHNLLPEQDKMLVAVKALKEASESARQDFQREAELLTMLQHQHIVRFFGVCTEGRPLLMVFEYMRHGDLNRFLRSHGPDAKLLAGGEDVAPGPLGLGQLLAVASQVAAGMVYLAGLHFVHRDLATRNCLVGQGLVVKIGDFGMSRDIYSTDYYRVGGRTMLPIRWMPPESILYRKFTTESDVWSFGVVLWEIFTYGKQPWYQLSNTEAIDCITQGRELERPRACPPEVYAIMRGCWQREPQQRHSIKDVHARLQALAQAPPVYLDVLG

| SMILES | residual kinase activity (CLK2; 0.3 µM) | residual kinase activity (GSK3β; 0.3 µM) | residual kinase activity (MYLK2; 0.3 µM) | residual kinase activity (SGK2; 0.3 µM) | residual kinase activity (IKKβ; 0.3 µM) | residual kinase activity (TRKA; 0.3 µM) | residual kinase activity (BMPR1B; 0.3 µM) | residual kinase activity (MLK4; 0.3 µM) | residual kinase activity (CDK16/CycY; 0.3 µM) | residual kinase activity (EPHA6; 0.3 µM) | also measured |
| --- | --- | --- | --- | --- | --- | --- | --- | --- | --- | --- | --- |
| c1ccc(CNc2cc(-c3c[nH]c4ncccc34)ccn2)cc1 [meriolin 36] | 1 % of control | 18 % of control | 61 % of control | 88 % of control | 80 % of control | 9 % of control | 75 % of control | 73 % of control | 17 % of control | 101 % of control | residual kinase activity (CLK2; 3 µM): 2 % of control; residual kinase activity (GSK3β; 3 µM): 2 % of control; residual kinase activity (MYLK2; 3 µM): 26 % of control; residual kinase activity (SGK2; 3 µM): 32 % of control; residual kinase activity (IKKβ; 3 µM): 36 % of control; residual kinase activity (TRKA; 3 µM): 1 % of control; residual kinase activity (BMPR1B; 3 µM): 45 % of control; residual kinase activity (MLK4; 3 µM): 40 % of control; residual kinase activity (CDK16/CycY; 3 µM): 3 % of control; residual kinase activity (EPHA6; 3 µM): 65 % of control |
| COc1ccnc2[nH]cc(-c3cc(N)nc(N)c3)c12 [meriolin 16] | 1 % of control | 66 % of control | 32 % of control | 74 % of control | 64 % of control | 40 % of control | 91 % of control | 75 % of control | 16 % of control | 105 % of control | residual kinase activity (CLK2; 0.03 µM): 8 % of control; residual kinase activity (GSK3β; 0.03 µM): 80 % of control; residual kinase activity (MYLK2; 0.03 µM): 65 % of control; residual kinase activity (SGK2; 0.03 µM): 97 % of control; residual kinase activity (IKKβ; 0.03 µM): 85 % of control; residual kinase activity (TRKA; 0.03 µM): 83 % of control; residual kinase activity (BMPR1B; 0.03 µM): 91 % of control; residual kinase activity (MLK4; 0.03 µM): 105 % of control; residual kinase activity (CDK16/CycY; 0.03 µM): 64 % of control; residual kinase activity (EPHA6; 0.03 µM): 98 % of control |
